These results are taken from article PMC7967019 (Slas Discovery, 2022).

Where only a bound is given, the exact number is not on record here.

The target in series [1] is T1, SARS-CoV-2 nsp14 (Severe acute respiratory syndrome coronavirus 2, UniProt P0DTD1). In words: Nsp14 RapidFire MS high-throughput screening assay. Format: biochemical.
Another series has as its target nsp14 N7-MTase. The following applies: read-out: IC50 nsp14 N7-MTase activity; cited from earlier work.
Another series deals with SAR-CoV. The conditions noted are these: cited from earlier work.
For series [2] the following is noted: humans; with minimal gastrointestinal side effects; cited from earlier work.
For series [3], the target named is T1, SARS-CoV-2 nsp14. In words: biochemical. Format: biochemical.
The conditions of series [4]: hydrolysis to the active metabolite tizoxanide; cited from earlier work.
For series [5], the target named is human homolog RNA RNMT (RNMT:RAM) (Homo sapiens, UniProt O43148). In words: RNMT assay under similar conditions to the nsp14 RapidFire assay. Format: biochemical.
Chain of human homolog RNA RNMT (RNMT:RAM) (O43148 whole entry): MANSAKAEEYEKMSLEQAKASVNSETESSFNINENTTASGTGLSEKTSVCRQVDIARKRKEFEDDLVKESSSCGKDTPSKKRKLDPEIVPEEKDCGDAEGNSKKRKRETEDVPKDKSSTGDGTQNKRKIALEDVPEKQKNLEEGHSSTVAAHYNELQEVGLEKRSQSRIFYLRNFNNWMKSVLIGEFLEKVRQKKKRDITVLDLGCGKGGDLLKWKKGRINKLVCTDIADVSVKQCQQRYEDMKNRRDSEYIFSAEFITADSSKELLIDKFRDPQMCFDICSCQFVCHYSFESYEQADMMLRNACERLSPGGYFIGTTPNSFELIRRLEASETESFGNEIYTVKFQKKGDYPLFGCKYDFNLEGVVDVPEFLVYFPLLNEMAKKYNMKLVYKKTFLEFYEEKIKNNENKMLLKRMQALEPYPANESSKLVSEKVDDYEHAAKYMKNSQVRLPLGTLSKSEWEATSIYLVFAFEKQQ
Chain of human homolog RNA RNMT (RNMT:RAM) (Q9BTL3 1-90 partner limits assumed): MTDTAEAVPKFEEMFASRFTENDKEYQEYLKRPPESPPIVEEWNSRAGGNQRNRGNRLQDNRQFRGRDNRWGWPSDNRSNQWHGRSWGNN
The test system of another series is SARS-CoV-2. The following applies: read-out: EC50 blocking SARS-CoV-2 in vitro infections; cited from earlier work.

For the compound `O=C1C=CC(=O)N1c1cccc(F)c1` [N-(3-fluorophenyl)maleimide], the “percentage effect on nsp14 activity” value at SARS-CoV-2 nsp14 [1] (single concentration of 10 µM) was “greater than 50%”.
A word on the IC50: it is the concentration that inhibits the measured activity by half. Take `Nc1ncnc2c1ncn2[C@@H]1O[C@H](CSCC[C@H](N)C(=O)O)[C@@H](O)[C@H]1O` [S-adenosyl-L-homocysteine]: the IC50 at nsp14 N7-MTase was 16 µM.
Take `O=C(O)C1=CC(=C(c2ccc(O)c(C(=O)O)c2)c2ccc(O)c(C(=O)O)c2)C=CC1=O` [aurintricarboxylic acid]: on nsp14 N7-MTase, the IC50 is 6.4 µM. In the series with SAR-CoV, the “effect on SAR-CoV replication in infected cells” value is on record as “limit SAR-CoV replication in infected cells”.
Regarding `O=c1c(O)c(-c2ccc(O)cc2)oc2cc(O)cc(O)c12` [kaempferol], half-maximal inhibition at SARS-CoV-2 nsp14 [1] (IC50) was put at 28 µM.
The term EC50 denotes the concentration at which the effect is half-maximal. With `CC(=O)Oc1ccccc1C(=O)Nc1ncc([N+](=O)[O-])s1` [nitazoxanide], the tolerated single dose entry in series [2] is listed as “up to 4 g”. Further, on SARS-CoV-2 nsp14 [3], the half-maximal inhibitory concentration (IC50) turned out to be 132 µM and the “inhibition of N7-guanosine cap methylation” value is “Forty-nine”. On SARS-CoV-2 nsp14 [3] (orthogonal versus RapidFire assay), the “shift in activity between cap MTase assay and primary biochemical assay” value is on record as 10 fold. For the same compound, in series [4], the “metabolic fate following oral administration” value was “rapidly hydrolyzed”. This compound also came in with an IC50 in series [5] greater than 100 µM. Further, the Emax at 100 µM at SARS-CoV-2 nsp14 [1] (read-out: maximal effect, dose response, top concentration 100 µM) stood at 89.7%. Besides, the EC50 in the series with SARS-CoV-2 is 2.12 µM.
Regarding `O=C(Nc1ncc([N+](=O)[O-])s1)c1ccccc1O` [tizoxanide], the midpoint of inhibition on SARS-CoV-2 nsp14 [1], the IC50, lay at 54.8 µM.
